# Measured values: ChEMBL document CHEMBL5096225 (J Med Chem, 2022)
# Experiment: Solubility of the compound in deionized water
# Format: physicochemical
row,solubility [µg/mL],Structure (SMILES)
1,56,O=C(c1cc(O)cc(F)c1)c1cc(O)c(O)c([N+](=O)[O-])c1
2,45,Cc1ccc(C(=O)c2cc(O)c(O)c([N+](=O)[O-])c2)cc1 [TOLCAPONE]
